From patent US6995184B2, “3-arylindole derivatives and their use as CB2 receptor agonists” (Sanofi-Aventis, priority 2000, dated 2006)

Biological target: T1, cannabinoid receptors present in the mouse spleen (Mus musculus, UniProt P47936)
T1 construct: from tissue; host or cells: mouse spleen
Test: In vivo affinity for cannabinoid receptors in mouse spleen after oral administration
Experimental: The tests were carried out according to the experimental conditions described by Rinaldi-Carmona et al., J. Pharmacol. Exp. Ther., 1998, 284, 644–650.
Thus, the compounds of Examples 7, 44, 46, 72, 89, 106, 120, 130 and 132, for which the ratio of the affinity for the CB1 receptors to that for the CB2 receptors is between 400 and 4 000, are active orally with an ED50 of between 0.2 mg/kg and 20 mg/kg.

T1 sequence (P47936 whole entry): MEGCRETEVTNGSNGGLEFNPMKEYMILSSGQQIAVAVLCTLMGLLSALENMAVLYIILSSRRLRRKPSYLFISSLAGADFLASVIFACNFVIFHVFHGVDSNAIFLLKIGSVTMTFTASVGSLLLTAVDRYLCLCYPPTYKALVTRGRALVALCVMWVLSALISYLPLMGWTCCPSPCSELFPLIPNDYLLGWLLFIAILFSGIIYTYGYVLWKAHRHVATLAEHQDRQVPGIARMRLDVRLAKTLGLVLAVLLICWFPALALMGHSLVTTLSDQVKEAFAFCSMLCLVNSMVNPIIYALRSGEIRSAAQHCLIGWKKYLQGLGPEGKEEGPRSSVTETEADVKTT

SMILES	ED50 [mg/kg]
Cc1c(C(=O)c2cccc(Cl)c2Cl)c2cccc(Br)c2n1CCCS(C)(=O)=O [Example 7, (7-Bromo-2-methyl-1-(3-(methylsulphonyl)propyl)-1H-indol-3-yl)(2,3-dichlorophenyl)methanone]	0.2 to 20
Cc1c(C(=O)c2cccc(C(F)(F)F)c2F)c2ccc(Cl)c(Cl)c2n1CCCNS(C)(=O)=O [Example 72, N-(3-(6,7-Dichloro-3-[2-fluoro-3-(trifluoromethyl)benzoyl]-2-methyl-1H-indol-1-yl)propyl)methanesulphonamide]	0.2 to 20
